Here are results for 32 molecules from patent US9340554B2, “IRAK inhibitors and uses thereof” (Nimbus Iris, Inc., priority 2011, dated 2016).

The target of the experiment is T1, IRAK4 (Homo sapiens, UniProt Q9NWZ3).
T1 construct: purchased CARNA Bioscience 09-145
T1 sequence (Q9NWZ3 1-460): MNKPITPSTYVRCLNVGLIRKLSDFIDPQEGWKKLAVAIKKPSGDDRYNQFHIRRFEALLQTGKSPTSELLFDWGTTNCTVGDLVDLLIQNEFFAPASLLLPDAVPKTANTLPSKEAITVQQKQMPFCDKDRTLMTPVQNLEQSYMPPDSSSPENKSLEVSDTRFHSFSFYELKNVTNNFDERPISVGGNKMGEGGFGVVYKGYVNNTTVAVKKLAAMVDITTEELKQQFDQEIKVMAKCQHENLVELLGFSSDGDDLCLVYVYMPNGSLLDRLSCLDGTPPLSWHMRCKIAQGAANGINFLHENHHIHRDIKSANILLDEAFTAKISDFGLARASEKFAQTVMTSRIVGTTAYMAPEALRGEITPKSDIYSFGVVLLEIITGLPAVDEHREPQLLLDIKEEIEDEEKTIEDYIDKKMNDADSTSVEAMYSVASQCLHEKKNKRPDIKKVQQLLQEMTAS
Description: IRAK-4 activity inhibition assay (Caliper, Peptide 8, 37 μM ATP). It counts as biochemical. To be noted: 3.5 nM IRAK4, 1.5 μM Peptide 8, 37 μM ATP, 28° C. 40 minutes; read-out: IRAK-4 activity inhibition IC50. The procedure: A 1× kinase base buffer was prepared from 50 mM HEPES, pH 7.5 and 0.0015% Brij-35. A stop buffer was prepared from 100 mM HEPES, pH 7.5, 0.015% Brij-35, 0.2% Coating Reagent #3, and 50 mM EDTA.
Test compound was diluted to 50× of the final desired highest inhibitor concentration in reaction by 100% DMSO. 100 ul of this compound dilution was transferred to a well in a 96-well plate.
Test compound was serially diluted by transferring 30 μl to 60 μl of 100% DMSO in the next well and so forth for a total of 10 concentrations. 100 μl of 100% DMSO was added to two empty wells for no compound control and no enzyme control in the same 96-well plate.
A new 96-well plate was marked as intermediate plate. 5 μl of compound serial dilution was transferred from source plate to the corresponding wells of the intermediate plate. 45 μl of 1× kinase base buffer (KB buffer) was added to each well of the intermediate plate. The intermediate plate was placed for 10 min on a shaker.
5 μl of each well was transferred from the 96-well intermediate plate to a 384-well plate in duplicates. […] A2 of the 96-well plate is transferred to A3 and A4 of the 384-well plate, and so on.
IRAK4 and DTT in 1× kinase base buffer was added.
Assay plate already contained 5 μl of compound in 10% DMSO. Added 10 μl of 2.5× enzyme solution to each well of the 384-well assay plate, except no enzyme control wells. […] Added 10 μl of 1× kinase base buffer to no enzyme control wells in the assay plate. Incubated at room temperature for 10 min.
Added 10 μl of 2.5× peptide solution to each well of the 384-well assay plate. […] Incubated at 28° C. for 40 minutes. Added 25 μl of stop buffer to stop reaction. Collected data on Caliper.
Copied conversion % data from Caliper program. Converted conversion % values to percent inhibition values. Percent inhibition=(max−conversion %)/(max−min)*100, where “max” means the conversion % of DMSO control and “min” means the conversion % of no enzyme control.
The compound numbers correspond to the compound numbers in Table 1. […] “NA” stands for “not assayed.”

Bounds are passed on as bounds.

As for `CN(CCc1ccccc1Cl)[C@H]1CC[C@H](Nc2ncnc3sc4c(c23)CCC4)CC1` [Compound I-112, 1-N-[2-(2-chlorophenyl)ethyl]-1-N-methyl-4-N-[7-thia-9,11-diazatricyclo[6.4.0.0^[2,6]]dodeca-1(12),2(6),8,10-tetraen-12-yl]cyclohexane-1,4-diamine], the half-maximal inhibitory concentration (IC50) (in general, the point on the concentration scale where inhibition reaches its midpoint) is below 5 µM. With `CN(Cc1cccnc1)[C@H]1CC[C@H](Nc2ncnc3sc4c(c23)CCC4)CC1` [Compound I-163, 1-N-methyl-1-N-(pyridin-3-ylmethyl)-4-N-[7-thia-9,11-diazatricyclo[6.4.0.0^[2,6]]dodeca-1(12),2(6),8,10-tetraen-12-yl]cyclohexane-1,4-diamine], the 50% inhibitory concentration (IC50) was below 5 µM. Then `CCN(CC)[C@H]1CC[C@H](Nc2ncnc3sc4c(c23)CCC4)CC1` [Compound I-72, trans-N^1-(6,7-dihydro-5H-cyclopenta[4,5]thieno[2,3-d]pyrimidin-4-yl)-N^4,N^4-diethylcyclohexane-1,4-diamine], with below 5 µM. Take `CN[C@H]1CC[C@@H](Nc2ncnc3sc4c(c23)CCC4)CC1` [Compound I-156, (1s,4s)-1-N-methyl-4-N-[7-thia-9,11-diazatricyclo[6.4.0.0^[2,6]]dodeca-1(12),2(6),8,10-tetraen-12-yl]cyclohexane-1,4-diamine]: the IC50 was 20 to 50 µM.

Turning to `C[C@@H](Nc1ncnc2sc3c(c12)CCC3)C(=O)O` [Compound I-153], the IC50 is above 50 µM. With `CNCC1CCN(c2ncnc3sc4c(c23)CCC4)CC1` [Compound I-62], the IC50 lay within 5 to 20 µM. For `CN(C)CC1CCN(c2ncnc3sc4c(c23)CCC4)CC1` [Compound I-69], the 50% inhibitory concentration (IC50) was above 50 µM. With `CC1CCc2c(sc3ncnc(N4CCC5(CC4)NC(=O)NC5=O)c23)C1` (centres unmarked) [Compound I-28], the concentration for half-maximal inhibition (IC50) is 5 to 20 µM. Consider `CN[C@H]1CC[C@H](Nc2ncnc3sc4c(c23)CCC4)CC1` [Compound I-34, trans-N^1-(6,7-dihydro-5H-cyclopenta[4,5]thieno[2,3-d]pyrimidin-4-yl)-N^4-methylcyclohexane-1,4-diamine], for which the half-maximal inhibitory concentration (IC50) is below 5 µM. For `CCOc1ccccc1N1CCN(c2ncnc3sc4c(c23)CCC4)CC1` [Compound I-30], the IC50 was above 50 µM.

As to `CCC1CCc2c(sc3ncnc(N[C@H]4CC[C@H](N)CC4)c23)C1` (stereo partly drawn) [Compound I-39, trans-N^1-(7-ethyl-5,6,7,8-tetrahydrobenzo[4,5]thieno[2,3-d]pyrimidin-4-yl)cyclohexane-1,4-diamine], the half-maximal inhibitory concentration (IC50) was below 5 µM.

For the molecule `O=C(O)[C@@H]1CC[C@H](Nc2ncnc3sc4c(c23)CCC4)C1` [Compound I-6], the IC50 lay in the range of 20 to 50 µM. For the molecule `CN[C@H]1CC[C@H](Oc2ncnc3sc4c(c23)CCC4)CC1` [Compound I-66, trans-4-((6,7-dihydro-5H-cyclopenta[4,5]thieno[2,3-d]pyrimidin-4-yl)oxy)-N-methylcyclohexanamine], the half-inhibitory concentration (IC50) was below 5 µM. In the case of `CN(Cc1ncccc1F)[C@H]1CC[C@H](Nc2ncnc3sc4c(c23)CCC4)CC1` [Compound I-104, 1-N-[(3-fluoropyridin-2-yl)methyl]-1-N-methyl-4-N-[7-thia-9,11-diazatricyclo[6.4.0.0^[2,6]]dodeca-1(12),2(6),8,10-tetraen-12-yl]cyclohexane-1,4-diamine], the IC50 was below 5 µM.

Turning to `CN[C@H]1CC[C@H](Nc2ncnc3sc4c(c23)CC(C)(C)CC4)CC1` [Compound I-41, trans-N^1-(6,6-dimethyl-5,6,7,8-tetrahydrobenzo[4,5]thieno[2,3-d]pyrimidin-4-yl)-N^4-methylcyclohexane-1,4-diamine], the half-inhibitory concentration (IC50) is below 5 µM.

Regarding `OC1CCCC(Nc2ncnc3sc4c(c23)CCC4)C1` (mixture of isomers) [Compound I-15, 3-((6,7-dihydro-5H-cyclopenta[4,5]thieno[2,3-d]pyrimidin-4-yl)amino)cyclohexanol], the IC50 is 5 to 20 µM. Take `CCN[C@H]1CC[C@H](Nc2ncnc3sc4c(c23)CCC4)CC1` [Compound I-70]: the IC50 is below 5 µM. As to `CN(C)[C@H]1CC[C@H](COc2ncnc3sc4c(c23)CCC4)CC1` [Compound I-148, (1r,4r)-4-(((6,7-dihydro-5H-cyclopenta[4,5]thieno[2,3-d]pyrimidin-4-yl)oxy)methyl)-N,N-dimethylcyclohexanamine], the 50% inhibitory concentration (IC50) is 20 to 50 µM. As for `CC(C)CN(C)[C@H]1CC[C@H](Nc2ncnc3sc4c(c23)CCC4)CC1` [Compound I-127, 1-N-methyl-1-N-(2-methylpropyl)-4-N-[7-thia-9,11-diazatricyclo[6.4.0.0[2,6]]dodeca-1(8),2(6),9,11-tetraen-12-yl]cyclohexane-1,4-diamine], the concentration for half-maximal inhibition (IC50) is below 5 µM. For the molecule `FC(F)(F)CN[C@H]1CC[C@H](Nc2ncnc3sc4c(c23)CCC4)CC1` [Compound I-138, 1-N-[7-thia-9,11-diazatricyclo[6.4.0.0^[2,6]]dodeca-1(8),2(6),9,11-tetraen-12-yl]-4-N-(2,2,2-trifluoroethyl)cyclohexane-1,4-diamine], the IC50 was in the range of 5 to 20 µM. Turning to `C[C@@H]1CCc2sc3ncnc(N[C@H]4CC[C@H](O)CC4)c3c2C1` [Compound I-47, trans-4-(((R)-6-methyl-5,6,7,8-tetrahydrobenzo[4,5]thieno[2,3-d]pyrimidin-4-yl)amino)cyclohexanol], the IC50 lay in the range of 5 to 20 µM. Turning to `CN(CCCc1ccccc1)[C@H]1CC[C@H](Oc2ncnc3sc4c(c23)CCC4)CC1` [Compound I-116, N-methyl-N-(3-phenylpropyl)-4-[7-thia-9,11-diazatricyclo[6.4.0.0^[2,6]]dodeca-1(8),2(6),9,11-tetraen-12-yloxy]cyclohexan-1-amine], the IC50 was below 5 µM. Take `CNC1CCCC(Oc2ncnc3sc4c(c23)CCC4)CC1` (centres unmarked) [Compound I-113, N-methyl-4-[7-thia-9,11-diazatricyclo[6.4.0.0^[2,6]]dodeca-1(12),2(6),8,10-tetraen-12-yloxy]cycloheptan-1-amine]: the IC50 fell in the range of 5 to 20 µM.

Turning to `NC(=O)C1CCN(c2ncnc3sc4c(c23)CCCC4)CC1` [Compound I-2], the half-maximal inhibitory concentration (IC50) was 20 to 50 µM.

Turning to `CN(C)C(=O)CN(C)[C@H]1CC[C@H](Nc2ncnc3sc4c(c23)CCC4)CC1` [Compound I-131, N,N-dimethyl-2-[methyl[4-([7-thia-9,11-diazatricyclo[6.4.0.0[2,6]]dodeca-1(12),2(6),8,10-tetraen-12-yl]amino)cyclohexyl]amino]acetamide], the half-maximal inhibitory concentration (IC50) was below 5 µM. Consider `c1nc(NCC2CCNCC2)c2c3c(sc2n1)CCC3` [Compound I-59], for which the half-maximal inhibitory concentration (IC50) lay in the range of 20 to 50 µM. Take `CN(CCc1ccccn1)[C@H]1CC[C@H](Nc2ncnc3sc4c(c23)CCC4)CC1` [Compound I-106, 1-N-methyl-1-N-[2-(pyridin-2-yl)ethyl]-4-N-[7-thia-9,11-diazatricyclo[6.4.0.0^[2,6]]dodeca-1(8),2(6),9,11-tetraen-12-yl]cyclohexane-1,4-diamine]: the half-inhibitory concentration (IC50) was below 5 µM.

In the case of `O=C(O)CN[C@H]1CC[C@H](Nc2ncnc3sc4c(c23)CCC4)CC1` [Compound I-65, 2-((trans-4-((6,7-dihydro-5H-cyclopenta[4,5]thieno[2,3-d]pyrimidin-4-yl)amino)cyclohexyl)amino)acetic acid], the IC50 lay within 5 to 20 µM. As to `CN(Cc1ccncc1)[C@H]1CC[C@H](Nc2ncnc3sc4c(c23)CCC4)CC1` [Compound I-162], the IC50 is below 5 µM.

Turning to `CCC1CCc2c(sc3ncnc(N4CCC(C(=O)NC)CC4)c23)C1` (centres unmarked) [Compound I-13], the concentration for half-maximal inhibition (IC50) lay within 5 to 20 µM. With `CN(CCc1ccccc1)[C@H]1CC[C@H](Oc2ncnc3sc4c(c23)CCC4)CC1` [Compound I-121, N-methyl-N-(2-phenylethyl)-4-[7-thia-9,11-diazatricyclo[6.4.0.0[2,6]]dodeca-1(8),2(6),9,11-tetraen-12-yloxy]cyclohexan-1-amine], the IC50 is below 5 µM. For `CN(CC(=O)Nc1ccccc1)[C@H]1CC[C@H](Nc2ncnc3sc4c(c23)CCC4)CC1` [Compound I-114, 2-[methyl[4-([7-thia-9,11-diazatricyclo[6.4.0.0^[2,6]]dodeca-1(8),2(6),9,11-tetraen-12-yl]amino)cyclohexyl]amino]-N-phenylacetamide], the IC50 was below 5 µM.
